Results taken from ChEMBL document CHEMBL4804281, “STK4 inhibitors for treatment of hematologic malignancies” (2020).
Active and inactive are the calls of the source. The calls are words filed in the database; no cut-off is given here.

Columns and labels:
[1] = target: Mitogen-activated protein kinase kinase kinase 21 (Homo sapiens) (UniProt Q5TCX8); experiment: Inhibition of MLK4 in human NCI-H929 cells at 10 uM by mass spectroscopic analysis relative to control; assay type: cell-based
[2] = target: Mitogen-activated protein kinase 1 (Homo sapiens) (UniProt P28482); experiment: Inhibition of ERK2 in human NCI-H929 cells at 10 uM by mass spectroscopic analysis relative to control; assay type: cell-based
[3] = target: Mitogen-activated protein kinase kinase kinase 1 (Homo sapiens) (UniProt Q13233); experiment: Inhibition of MAP3K1 in human NCI-H929 cells at 10 uM by mass spectroscopic analysis relative to control; assay type: cell-based
[4] = target: 1-phosphatidylinositol 3-phosphate 5-kinase (Homo sapiens) (UniProt Q9Y2I7); experiment: Inhibition of PIP5K3 in human NCI-H929 cells at 10 uM by mass spectroscopic analysis relative to control; assay type: cell-based
[5] = target: Misshapen-like kinase 1 (Homo sapiens) (UniProt Q8N4C8); experiment: Inhibition of MINK in human NCI-H929 cells by mass spectroscopic analysis; assay type: cell-based; settings: concentration not given here
[6] = target: Casein kinase I isoform gamma-3 (Homo sapiens) (UniProt Q9Y6M4); experiment: Inhibition of CK1g3 in human NCI-H929 cells at 10 uM by mass spectroscopic analysis relative to control; assay type: cell-based
[7] = target: eIF-2-alpha kinase GCN2 (Homo sapiens) (UniProt Q9P2K8); experiment: Inhibition of GCN2 domain 2 in human NCI-H929 cells at 10 uM by mass spectroscopic analysis relative to control; assay type: cell-based
[8] = target: Casein kinase I isoform alpha (Homo sapiens) (UniProt P48729); experiment: Inhibition of CK1a in human NCI-H929 cells at 10 uM by mass spectroscopic analysis relative to control; assay type: cell-based
[9] = target: T1, Serine/threonine-protein kinase 3 (Homo sapiens) (UniProt Q13188); experiment: Inhibition of MST2 in human NCI-H929 cells at 10 uM by mass spectroscopic analysis relative to control; assay type: cell-based
T1 sequence (whole entry): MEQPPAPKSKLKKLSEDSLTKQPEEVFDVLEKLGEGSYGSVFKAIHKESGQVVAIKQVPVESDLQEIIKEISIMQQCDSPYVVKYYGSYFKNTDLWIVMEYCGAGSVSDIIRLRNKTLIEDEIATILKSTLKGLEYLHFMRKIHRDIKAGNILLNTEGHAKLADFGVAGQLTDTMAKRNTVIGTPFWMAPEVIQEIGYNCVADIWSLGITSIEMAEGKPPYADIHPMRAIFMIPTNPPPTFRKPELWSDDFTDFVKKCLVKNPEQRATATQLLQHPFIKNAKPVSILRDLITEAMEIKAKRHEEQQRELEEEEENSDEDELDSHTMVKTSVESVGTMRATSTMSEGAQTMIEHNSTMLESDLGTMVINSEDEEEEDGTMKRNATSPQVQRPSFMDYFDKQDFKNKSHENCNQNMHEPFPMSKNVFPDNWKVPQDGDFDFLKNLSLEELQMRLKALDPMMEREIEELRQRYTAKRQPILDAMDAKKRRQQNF

[10] = target: Mitogen-activated protein kinase kinase kinase 11 (Homo sapiens) (UniProt Q16584); experiment: Inhibition of MLK3 in human NCI-H929 cells at 10 uM by mass spectroscopic analysis relative to control; assay type: cell-based
[11] = target: Phosphatidylinositol 5-phosphate 4-kinase type-2 gamma (Homo sapiens) (UniProt Q8TBX8); experiment: Inhibition of PIP4K2C in human NCI-H929 cells at 10 uM by mass spectroscopic analysis relative to control; assay type: cell-based
[12] = target: Glycogen synthase kinase-3 beta (Homo sapiens) (UniProt P49841); experiment: Inhibition of GSK3B in human NCI-H929 cells at 10 uM by mass spectroscopic analysis relative to control; assay type: cell-based
[13] = target: Dual specificity mitogen-activated protein kinase kinase 4 (Homo sapiens) (UniProt P45985); experiment: Inhibition of MAP2K4 in human NCI-H929 cells at 10 uM by mass spectroscopic analysis relative to control; assay type: cell-based
[14] = target: Serine/threonine-protein kinase Nek9 (Homo sapiens) (UniProt Q8TD19); experiment: Inhibition of NEK9 in human NCI-H929 cells at 10 uM by mass spectroscopic analysis relative to control; assay type: cell-based
[15] = target: Serine/threonine-protein kinase STK11 (Homo sapiens) (UniProt Q15831); experiment: Inhibition of LKB1 in human NCI-H929 cells at 10 uM by mass spectroscopic analysis relative to control; assay type: cell-based
[16] = target: Scaffold protein ILK (Homo sapiens) (UniProt Q13418); experiment: Inhibition of ILK in human NCI-H929 cells at 10 uM by mass spectroscopic analysis relative to control; assay type: cell-based
[17] = target: Glycogen synthase kinase-3 alpha (Homo sapiens) (UniProt P49840); experiment: Inhibition of GSK3A in human NCI-H929 cells at 10 uM by mass spectroscopic analysis relative to control; assay type: cell-based
[18] = target: Cyclin-G-associated kinase (Homo sapiens) (UniProt O14976); experiment: Inhibition of GAK in human NCI-H929 cells at 10 uM by mass spectroscopic analysis relative to control; assay type: cell-based
[19] = target: Dual specificity mitogen-activated protein kinase kinase 7 (Homo sapiens) (UniProt O14733); experiment: Inhibition of MAP2K7 in human NCI-H929 cells at 10 uM by mass spectroscopic analysis relative to control; assay type: cell-based
[20] = target: Calcium/calmodulin-dependent protein kinase type II subunit gamma (Homo sapiens) (UniProt Q13555); experiment: Inhibition of CAMK2G in human NCI-H929 cells at 10 uM by mass spectroscopic analysis relative to control; assay type: cell-based
[21] = tested on: NCI-H929; experiment: Upregulation of p21 protein level in human NCI-H929 cells at 1 uM measured after 24 hrs by Western blot analysis; assay type: functional, cell-based
[22] = tested on: NCI-H929; experiment: Induction of apoptosis in human NCI-H929 cells assessed as induction of PARP cleavage at 1 uM measured after 24 hrs by Western blot analysis; assay type: functional, cell-based
[23] = tested on: NCI-H929; experiment: Upregulation of BAX protein level in human NCI-H929 cells at 1 uM measured after 24 hrs by Western blot analysis; assay type: functional, cell-based
[24] = tested on: MM1.S; experiment: Induction of apoptosis in human MM1.S cells assessed as necrotic cells measured after 48 hrs by annevxinV/FITC-propidium iodide staining based flow cytometry (reference value: 0.19 %); assay type: functional
[25] = target: Mitogen-activated protein kinase kinase kinase 2 (Homo sapiens) (UniProt Q9Y2U5); experiment: Inhibition of MAP3K2 in human NCI-H929 cells at 10 uM by mass spectroscopic analysis relative to control; assay type: cell-based
[26] = tested on: NCI-H929; experiment: Upregulation of YAP1 protein level in human NCI-H929 cells at 3 to 10 uM measured after 72 hrs by Western blot analysis; assay type: functional, cell-based; settings: dose 3-10 µM
[27] = tested on: NCI-H929; experiment: Upregulation of PUMA protein level in human NCI-H929 cells at 1 uM measured after 24 hrs by Western blot analysis; assay type: functional, cell-based
[28] = tested on: MM1.S; experiment: Induction of apoptosis in human MM1.S cells assessed as late apoptotic cells measured after 48 hrs by annevxinV/FITC-propidium iodide staining based flow cytometry (reference value: 2.09 %); assay type: functional
[29] = tested on: MM1.S; experiment: Upregulation of YAP1 protein level in human MM1.S cells at 3 to 10 uM measured after 72 hrs by Western blot analysis; assay type: functional, cell-based; settings: dose 3-10 µM

Chain of Misshapen-like kinase 1 (Homo sapiens) (Q8N4C8 whole entry, looked up, canonical isoform): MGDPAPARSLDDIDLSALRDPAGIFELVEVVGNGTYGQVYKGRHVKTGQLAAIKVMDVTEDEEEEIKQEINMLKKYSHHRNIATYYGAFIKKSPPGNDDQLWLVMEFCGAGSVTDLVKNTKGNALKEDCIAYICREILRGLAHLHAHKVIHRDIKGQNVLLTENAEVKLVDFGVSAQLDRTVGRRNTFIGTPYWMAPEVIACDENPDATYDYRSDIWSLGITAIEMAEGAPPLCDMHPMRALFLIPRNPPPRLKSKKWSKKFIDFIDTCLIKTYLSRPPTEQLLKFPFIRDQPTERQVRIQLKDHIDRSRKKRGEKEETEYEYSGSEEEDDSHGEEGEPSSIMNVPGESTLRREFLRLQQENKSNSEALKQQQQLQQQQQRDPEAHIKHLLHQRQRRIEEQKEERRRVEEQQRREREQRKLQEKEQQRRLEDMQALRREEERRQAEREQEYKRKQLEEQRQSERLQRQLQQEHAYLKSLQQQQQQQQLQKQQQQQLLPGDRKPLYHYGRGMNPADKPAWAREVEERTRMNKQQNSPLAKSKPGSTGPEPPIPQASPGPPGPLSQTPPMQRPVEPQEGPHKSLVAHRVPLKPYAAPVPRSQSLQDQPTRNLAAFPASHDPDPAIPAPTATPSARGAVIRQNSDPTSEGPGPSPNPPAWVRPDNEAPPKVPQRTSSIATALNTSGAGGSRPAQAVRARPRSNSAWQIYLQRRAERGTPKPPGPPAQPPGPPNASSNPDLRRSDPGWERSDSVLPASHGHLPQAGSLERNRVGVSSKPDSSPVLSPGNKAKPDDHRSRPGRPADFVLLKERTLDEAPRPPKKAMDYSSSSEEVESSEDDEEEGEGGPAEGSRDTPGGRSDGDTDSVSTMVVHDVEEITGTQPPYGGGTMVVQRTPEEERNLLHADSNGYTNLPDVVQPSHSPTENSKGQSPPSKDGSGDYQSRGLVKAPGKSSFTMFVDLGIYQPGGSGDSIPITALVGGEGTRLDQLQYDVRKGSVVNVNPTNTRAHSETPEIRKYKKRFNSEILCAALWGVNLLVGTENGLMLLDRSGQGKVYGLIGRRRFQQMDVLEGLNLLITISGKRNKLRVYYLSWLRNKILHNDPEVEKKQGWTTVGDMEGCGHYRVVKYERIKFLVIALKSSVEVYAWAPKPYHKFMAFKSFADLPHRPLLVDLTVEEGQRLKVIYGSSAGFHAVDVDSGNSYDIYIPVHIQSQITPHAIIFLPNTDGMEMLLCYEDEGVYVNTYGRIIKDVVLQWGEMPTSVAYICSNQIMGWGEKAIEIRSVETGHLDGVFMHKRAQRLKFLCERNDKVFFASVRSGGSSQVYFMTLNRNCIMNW
Chain of Dual specificity mitogen-activated protein kinase kinase 7 (Homo sapiens) (O14733 whole entry): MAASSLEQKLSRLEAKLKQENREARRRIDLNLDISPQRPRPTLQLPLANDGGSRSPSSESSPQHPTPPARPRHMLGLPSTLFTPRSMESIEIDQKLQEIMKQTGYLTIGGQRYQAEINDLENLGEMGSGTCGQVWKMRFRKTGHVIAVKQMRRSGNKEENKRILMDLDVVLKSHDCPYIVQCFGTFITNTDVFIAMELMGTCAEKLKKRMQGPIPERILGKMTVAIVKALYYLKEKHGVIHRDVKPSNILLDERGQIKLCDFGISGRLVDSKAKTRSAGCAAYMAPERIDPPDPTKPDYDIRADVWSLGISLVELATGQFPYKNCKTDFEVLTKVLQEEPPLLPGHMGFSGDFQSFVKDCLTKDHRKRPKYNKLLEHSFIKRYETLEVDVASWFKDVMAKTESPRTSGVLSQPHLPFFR
Chain of Casein kinase I isoform gamma-3 (Homo sapiens) (Q9Y6M4 whole entry, looked up, the tested form may be a part, canonical isoform): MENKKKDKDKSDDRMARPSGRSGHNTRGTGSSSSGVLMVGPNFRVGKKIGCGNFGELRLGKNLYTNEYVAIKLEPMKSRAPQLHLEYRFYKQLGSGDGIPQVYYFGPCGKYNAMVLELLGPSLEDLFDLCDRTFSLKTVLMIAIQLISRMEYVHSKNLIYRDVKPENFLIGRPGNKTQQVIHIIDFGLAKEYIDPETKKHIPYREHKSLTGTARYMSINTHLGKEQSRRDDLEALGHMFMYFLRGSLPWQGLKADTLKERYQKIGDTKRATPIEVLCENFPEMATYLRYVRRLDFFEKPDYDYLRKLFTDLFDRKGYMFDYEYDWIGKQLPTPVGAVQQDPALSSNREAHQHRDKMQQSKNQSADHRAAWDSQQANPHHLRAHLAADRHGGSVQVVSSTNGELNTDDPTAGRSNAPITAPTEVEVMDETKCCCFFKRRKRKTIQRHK
Chain of Glycogen synthase kinase-3 beta (Homo sapiens) (P49841 whole entry, looked up): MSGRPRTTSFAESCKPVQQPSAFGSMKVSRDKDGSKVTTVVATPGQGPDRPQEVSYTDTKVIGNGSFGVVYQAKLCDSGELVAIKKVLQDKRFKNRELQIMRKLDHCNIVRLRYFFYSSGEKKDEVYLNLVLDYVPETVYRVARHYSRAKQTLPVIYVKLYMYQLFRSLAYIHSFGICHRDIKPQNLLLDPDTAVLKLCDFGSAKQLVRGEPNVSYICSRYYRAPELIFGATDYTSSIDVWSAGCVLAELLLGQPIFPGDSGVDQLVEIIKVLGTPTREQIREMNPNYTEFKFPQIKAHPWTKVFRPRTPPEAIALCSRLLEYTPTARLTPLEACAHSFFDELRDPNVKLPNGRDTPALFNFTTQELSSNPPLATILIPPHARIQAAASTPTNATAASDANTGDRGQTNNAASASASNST
Chain of Scaffold protein ILK (Homo sapiens) (Q13418 whole entry): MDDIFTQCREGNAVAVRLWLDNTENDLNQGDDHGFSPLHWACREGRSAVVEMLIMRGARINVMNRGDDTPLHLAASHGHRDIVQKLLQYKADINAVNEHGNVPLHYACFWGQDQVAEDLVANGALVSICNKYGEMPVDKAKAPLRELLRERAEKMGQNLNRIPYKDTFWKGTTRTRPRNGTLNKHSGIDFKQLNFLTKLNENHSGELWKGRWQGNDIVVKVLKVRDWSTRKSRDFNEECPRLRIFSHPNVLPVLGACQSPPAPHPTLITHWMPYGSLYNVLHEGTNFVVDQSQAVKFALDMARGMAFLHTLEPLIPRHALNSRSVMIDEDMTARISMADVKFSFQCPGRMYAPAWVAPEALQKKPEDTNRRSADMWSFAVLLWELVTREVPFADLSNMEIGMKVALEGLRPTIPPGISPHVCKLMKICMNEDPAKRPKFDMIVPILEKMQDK
Chain of Mitogen-activated protein kinase kinase kinase 21 (Homo sapiens) (Q5TCX8 whole entry): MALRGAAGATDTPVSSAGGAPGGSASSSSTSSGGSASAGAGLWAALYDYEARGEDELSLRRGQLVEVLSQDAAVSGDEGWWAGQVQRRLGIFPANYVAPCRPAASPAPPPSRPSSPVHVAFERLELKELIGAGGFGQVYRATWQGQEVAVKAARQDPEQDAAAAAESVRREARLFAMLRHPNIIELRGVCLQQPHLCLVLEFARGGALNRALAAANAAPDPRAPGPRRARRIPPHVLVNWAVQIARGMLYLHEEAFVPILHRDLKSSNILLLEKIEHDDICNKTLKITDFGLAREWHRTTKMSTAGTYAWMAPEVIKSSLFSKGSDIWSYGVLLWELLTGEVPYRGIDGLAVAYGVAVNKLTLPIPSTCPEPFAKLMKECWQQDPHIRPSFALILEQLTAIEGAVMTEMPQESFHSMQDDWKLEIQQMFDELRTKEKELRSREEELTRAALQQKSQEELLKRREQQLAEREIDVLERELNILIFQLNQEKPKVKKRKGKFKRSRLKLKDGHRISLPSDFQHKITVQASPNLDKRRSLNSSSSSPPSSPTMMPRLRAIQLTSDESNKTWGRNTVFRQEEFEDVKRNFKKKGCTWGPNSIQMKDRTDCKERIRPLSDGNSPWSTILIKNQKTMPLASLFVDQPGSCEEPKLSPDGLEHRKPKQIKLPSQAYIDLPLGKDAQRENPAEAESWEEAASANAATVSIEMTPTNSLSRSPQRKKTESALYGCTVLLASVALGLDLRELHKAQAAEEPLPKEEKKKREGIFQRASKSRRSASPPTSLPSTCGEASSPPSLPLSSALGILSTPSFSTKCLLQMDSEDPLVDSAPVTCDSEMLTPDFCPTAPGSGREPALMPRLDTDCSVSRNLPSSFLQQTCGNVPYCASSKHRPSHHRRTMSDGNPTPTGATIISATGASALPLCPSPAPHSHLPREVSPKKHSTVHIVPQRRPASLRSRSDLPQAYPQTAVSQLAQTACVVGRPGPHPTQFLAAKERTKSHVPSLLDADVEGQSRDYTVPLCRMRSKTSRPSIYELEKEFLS
Chain of Serine/threonine-protein kinase STK11 (Homo sapiens) (Q15831 whole entry): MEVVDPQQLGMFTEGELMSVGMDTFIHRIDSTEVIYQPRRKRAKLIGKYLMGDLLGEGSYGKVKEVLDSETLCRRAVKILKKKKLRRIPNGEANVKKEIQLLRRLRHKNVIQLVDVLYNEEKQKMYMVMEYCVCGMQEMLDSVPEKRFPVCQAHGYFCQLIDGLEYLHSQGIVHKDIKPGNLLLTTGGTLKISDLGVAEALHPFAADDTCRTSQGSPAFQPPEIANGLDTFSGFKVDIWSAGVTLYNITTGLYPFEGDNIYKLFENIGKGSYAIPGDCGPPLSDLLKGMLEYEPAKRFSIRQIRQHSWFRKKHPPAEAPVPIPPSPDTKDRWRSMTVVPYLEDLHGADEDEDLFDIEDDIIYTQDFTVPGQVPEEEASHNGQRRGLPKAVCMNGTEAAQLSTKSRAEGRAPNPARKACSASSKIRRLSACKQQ
Chain of Mitogen-activated protein kinase 1 (Homo sapiens) (P28482 whole entry): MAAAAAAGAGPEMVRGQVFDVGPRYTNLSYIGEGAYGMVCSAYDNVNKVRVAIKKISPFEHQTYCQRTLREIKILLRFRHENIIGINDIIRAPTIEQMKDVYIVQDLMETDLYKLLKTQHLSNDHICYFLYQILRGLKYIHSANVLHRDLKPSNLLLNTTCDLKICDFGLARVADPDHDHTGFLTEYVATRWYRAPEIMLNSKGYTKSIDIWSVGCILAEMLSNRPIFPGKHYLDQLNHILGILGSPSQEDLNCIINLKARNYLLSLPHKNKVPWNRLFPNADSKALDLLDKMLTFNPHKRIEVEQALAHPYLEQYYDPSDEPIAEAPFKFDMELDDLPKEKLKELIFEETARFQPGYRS

Structure (SMILES): Nc1ncc(-c2ccc(NS(=O)(=O)C3CC3)cc2OC2CCCCC2)cc1-c1ccc2c(c1)CCNC2=O
- inhibition [1]: 50%

Structure (SMILES): Nc1ncc(-c2cccc3ncsc23)cc1-c1ccc2c(c1)CCNC2=O
- inhibition [2]: 50%

Structure (SMILES): COc1cc(NS(=O)(=O)C2CC2)ccc1-c1cnc(N)c(-c2ccc3c(c2)CCNC3=O)c1
- inhibition [3]: 0%
- inhibition [4]: 0%
- inhibition [5]: 0%
- inhibition [6]: 0%
- inhibition [7]: 75%
- inhibition [8]: 75%
- inhibition [9]: 0%
- inhibition [10]: 0%
- inhibition [11]: 75%
- inhibition [12]: > 90%
- inhibition [13]: 0%
- inhibition [14]: 50%
- inhibition [15]: > 90%
- inhibition [16]: 50%
- inhibition [17]: 75%
- inhibition [18]: 50%
- inhibition [19]: 75%
- inhibition [20]: 75%

Structure (SMILES): Nc1ncc(-c2cccc([N+](=O)[O-])c2F)cc1-c1ccc2c(c1)CCNC2=O
- Activity [21]: Active
- Activity [22]: Active
- Activity [23]: Active
- Activity [24]: 29.41%
- inhibition [25]: < 50%
- Activity [26]: inactive
- Activity [27]: Active
- Activity [28]: 25.05%
- Activity [29]: inactive
